Assay results taken from ChEMBL document CHEMBL4477199, “Design and synthesis of novel bicalutamide and enzalutamide derivatives as antiproliferative agents for the treatment of prostate cancer” (Eur J Med Chem, 2016).

How the values were obtained:
[1] = tested on: CWR22R; assay: Antiproliferative activity against human 22Rv1 cells after 96 hrs by propidium iodide staining based fluorescence 2D monolayer assay; format: functional, cell-based; details: 22Rv1, 96 h
[2] = tested on: DU-145; assay: Antiproliferative activity against human DU145 cells after 96 hrs by propidium iodide staining based fluorescence 2D monolayer assay; format: functional, cell-based; details: DU-145, 96 h
[3] = tested on: LNCaP; assay: Antiproliferative activity against human LNCAP cells after 96 hrs by propidium iodide staining based fluorescence 2D monolayer assay; format: functional, cell-based
[4] = tested on: VCaP; assay: Antiproliferative activity against human VCaP cells after 96 hrs by propidium iodide staining based fluorescence 2D monolayer assay; format: functional, cell-based
[5] = tested on: LNCaP; assay: Antiproliferative activity against human LNCAP cells assessed as relative inhibition after 96 hrs by propidium iodide staining based fluorescence 2D monolayer assay; format: functional, cell-based
[6] = tested on: DU-145; assay: Antiproliferative activity against human DU145 cells assessed as relative inhibition after 96 hrs by propidium iodide staining based fluorescence 2D monolayer assay; format: functional, cell-based; details: DU-145, 96 h
[7] = tested on: CWR22R; assay: Antiproliferative activity against human 22Rv1 cells assessed as relative inhibition after 96 hrs by propidium iodide staining based fluorescence 2D monolayer assay; format: functional, cell-based; details: 22Rv1, 96 h
[8] = tested on: VCaP; assay: Antiproliferative activity against human VCaP cells assessed as relative inhibition after 96 hrs by propidium iodide staining based fluorescence 2D monolayer assay; format: functional, cell-based
[9] = 96 h
Description: Solubility in RPMI1640 culture medium at <30 uM incubated for 4 days by microscopic analysis

[10] = 33000 µM
Description: Solubility in 100% DMSO at 33 mM at -20 degC

[11] = target: T1, Androgen receptor (Rattus norvegicus) (UniProt P15207); assay: (§1) Antagonist activity at rat androgen receptor fused with DNA-binding domain of GAL4 expressed in AR-UAS-bla GripTite 293 cells assessed as inhibition of R1881-induced receptor activation preincubated for 30 mins followed by R1881 addition measured after 16 to 24 hrs by betalactamase reporter gene assay; format: cell-based
T1 sequence (whole entry): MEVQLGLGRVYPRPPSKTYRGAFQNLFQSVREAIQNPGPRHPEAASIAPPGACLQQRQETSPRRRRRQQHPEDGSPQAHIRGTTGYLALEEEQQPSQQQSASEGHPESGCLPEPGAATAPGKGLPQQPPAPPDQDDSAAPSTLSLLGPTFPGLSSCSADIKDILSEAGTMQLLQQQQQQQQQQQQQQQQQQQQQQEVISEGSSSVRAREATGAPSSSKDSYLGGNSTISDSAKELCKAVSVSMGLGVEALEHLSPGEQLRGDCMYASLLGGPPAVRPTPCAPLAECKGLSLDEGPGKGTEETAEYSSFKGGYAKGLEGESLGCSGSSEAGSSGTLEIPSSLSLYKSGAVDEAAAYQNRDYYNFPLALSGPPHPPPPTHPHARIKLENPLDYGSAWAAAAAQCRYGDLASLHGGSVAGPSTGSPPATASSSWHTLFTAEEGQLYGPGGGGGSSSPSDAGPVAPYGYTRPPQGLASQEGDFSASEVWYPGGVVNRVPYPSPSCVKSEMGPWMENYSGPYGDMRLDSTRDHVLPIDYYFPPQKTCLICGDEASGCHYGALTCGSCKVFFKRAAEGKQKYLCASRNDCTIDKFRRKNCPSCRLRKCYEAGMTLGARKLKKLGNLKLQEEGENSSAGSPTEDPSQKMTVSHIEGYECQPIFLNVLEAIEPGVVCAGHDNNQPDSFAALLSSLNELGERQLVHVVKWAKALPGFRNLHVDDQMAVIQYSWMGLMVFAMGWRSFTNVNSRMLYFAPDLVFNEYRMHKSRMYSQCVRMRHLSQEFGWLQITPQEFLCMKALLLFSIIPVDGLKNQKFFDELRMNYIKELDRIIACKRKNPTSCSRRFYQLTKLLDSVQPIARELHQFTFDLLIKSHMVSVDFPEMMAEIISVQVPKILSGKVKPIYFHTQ

[12] = target: T2, Androgen receptor (Rattus norvegicus, UniProt P15207); assay: as §1; format: cell-based
T2 sequence (P15207 whole entry): T1 sequence (whole entry)

[13] = Half life in human liver microsomes at 3 uM preincubated with compound followed by NADPH addition by LC-MS/MS analysis
[14] = tested on: HepG2; assay: Cytotoxicity against human HepG2 cells assessed as reduction in cell viability after 72 hrs by MTT assay; format: functional, cell-based; details: HepG2, 72 h; for minimal effective concentration: read-out: MEC
[15] = in vitro; details: human
[16] = Apparent permeability from apical to basolateral side in human Caco2 cells at 10 uM incubated for 120 mins by LC-MS/MS analysis; details: Caco-2
[17] = Apparent permeability from basolateral to apical side in human Caco2 cells at 10 uM incubated for 120 mins by LC-MS/MS analysis; details: Caco-2
[18] = Efflux ratio of apparent permeability from basolateral to apical side over apical to basolateral side in human Caco2 cells at 10 uM incubated for 120 mins by LC-MS/MS analysis; details: Caco-2

| Structure (SMILES) | IC50 [1] [µM] | IC70 [1] [µM] | IC50 [2] [µM] | IC70 [2] [µM] | IC50 [3] [µM] | IC70 [3] [µM] | IC50 [4] [µM] | IC70 [4] [µM] | IC50 [5] [µM] | IC70 [5] [µM] | IC50 [6] [µM] | IC70 [6] [µM] | IC50 [7] [µM] | IC70 [7] [µM] | IC50 [8] [µM] | IC70 [8] [µM] | solubility [9] | solubility [10] | inhibition [11] | IC50 [12] [µM] | other results |
| --- | --- | --- | --- | --- | --- | --- | --- | --- | --- | --- | --- | --- | --- | --- | --- | --- | --- | --- | --- | --- | --- |
| CC(O)(CSc1ccccc1OC(F)(F)F)C(=O)Nc1ccc([N+](=O)[O-])cc1C(F)(F)F (stereo not given) | 4.64 | 6.31 | 6.57 to 6.58 | 8.16 | 3.31 | 3.61 | 5.27 | 13.8 | 3.28 | 3.55 | 6.16 | 7.59 | 4.47 | 5.88 | 4.66 | 9.39 | Soluble | Soluble |  |  |  |
| CC(O)(CSc1ccccc1C(F)(F)F)C(=O)Nc1ccc(C#N)c(C(F)(F)F)c1 (stereo not given) | 5.06 |  | 7.73 |  | 4.91 |  | 7.51 |  |  |  |  |  |  |  |  |  |  |  | Dose-dependent effect | 0.425 | half-life at 3 µM ([13]; liver microsomes): 3.66 min; AC50 [14]: 25.8 µM; minimal effective concentration [14]: 14.7 µM; microsomal CLint at 3 µM ([15]; liver microsomes): 379 µL/min/mg |
| CC(O)(CSc1cccc(C(F)(F)F)c1)C(=O)Nc1ccc([N+](=O)[O-])c(C(F)(F)F)c1 (stereo not given) | 5.07 |  | 8.73 |  | 6.44 |  | 8.64 |  |  |  |  |  |  |  |  |  | Soluble | Soluble | Dose-dependent effect | 0.625 | half-life at 3 µM ([13]; liver microsomes): 6.87 min; Papp A→B at 2 h, 10 µM [16]: 5 ×10⁻⁶ cm/s; Papp B→A at 2 h, 10 µM [17]: 4.27 ×10⁻⁶ cm/s; efflux ratio at 2 h, 10 µM [18]: 0.853; AC50 [14]: 26.1 µM; minimal effective concentration [14]: 13.2 µM; microsomal CLint at 3 µM ([15]; liver microsomes): 202 µL/min/mg |
| O=C(Nc1ccc([N+](=O)[O-])c(C(F)(F)F)c1)C(O)(CSc1ccccc1C(F)(F)F)C(F)(F)F (stereo not given) | 1.28 | 1.7 | 2.4 | 2.76 | 0.719 to 0.72 | 1.2 | 2.78 | 5.73 | 0.828 | 1.33 | 2.36 | 2.7 | 1.27 | 1.65 | 2.43 | 4.8 | Soluble | Soluble | Dose-dependent effect | 0.245 |  |
| CC(C)NCC(O)COc1cccc2ccccc12 (stereo not given) [PROPRANOLOL] |  |  |  |  |  |  |  |  |  |  |  |  |  |  |  |  |  |  |  |  | Papp A→B at 2 h, 10 µM [16]: 40.3 ×10⁻⁶ cm/s; Papp B→A at 2 h, 10 µM [17]: 41.6 ×10⁻⁶ cm/s; efflux ratio at 2 h, 10 µM [18]: 1.03 |
| C[C@](O)(CSc1cccc(C(F)(F)F)c1)C(=O)Nc1ccc(C#N)c(C(F)(F)F)c1 | 13.1 |  | 19.4 |  | 14.3 |  | 8.91 |  |  |  |  |  |  |  |  |  | Soluble | Soluble |  |  | half-life at 3 µM ([13]; microsomes): 4.59 min; Papp A→B at 2 h, 10 µM [16]: 6.84 ×10⁻⁶ cm/s; Papp B→A at 2 h, 10 µM [17]: 12.2 ×10⁻⁶ cm/s; efflux ratio at 2 h, 10 µM [18]: 1.78; AC50 [14]: 34.6 µM; minimal effective concentration [14]: 26.6 µM; microsomal CLint at 3 µM ([15]; microsomes): 302 µL/min/mg |
| CC(O)(CSc1cccc(C(F)(F)F)c1)C(=O)Nc1ccc(C#N)c(C(F)(F)F)c1 (stereo not given) | 5.56 |  | 10.6 |  | 5.03 |  | 9.23 |  |  |  |  |  |  |  |  |  | Soluble | Soluble |  |  | half-life at 3 µM ([13]; microsomes): 5.97 min; Papp A→B at 2 h, 10 µM [16]: 3.92 ×10⁻⁶ cm/s; Papp B→A at 2 h, 10 µM [17]: 4.73 ×10⁻⁶ cm/s; efflux ratio at 2 h, 10 µM [18]: 1.21; AC50 [14]: 36.6 µM; minimal effective concentration [14]: 18.4 µM; microsomal CLint at 3 µM ([15]; microsomes): 232 µL/min/mg |
| CC(O)(CS(=O)(=O)c1ccc(OC(F)(F)F)cc1)C(=O)Nc1ccc([N+](=O)[O-])cc1C(F)(F)F (stereo not given) | ≥ 100 | > 100 | ≥ 100 | > 100 | ≥ 100 | > 100 | ≥ 100 | > 100 | > 100 | > 100 | > 100 | > 100 | > 100 | > 100 | > 100 | > 100 | Soluble | Soluble |  |  |  |
| CC(O)(CS(=O)(=O)c1ccc(F)cc1)C(=O)Nc1ccc(C#N)c(C(F)(F)F)c1 (stereo not given) [BICALUTAMIDE] | 49.6 | 65.1 | 49.2 | 61.3 | 45.3 | 59.1 | 68.4 | > 100 | 47.3 | 60.9 | 46 | 58.3 | 48.5 | 64.1 | 64.7 | 97.3 |  |  |  |  |  |
| CC(O)(COc1cccc(OC(F)(F)F)c1)C(=O)Nc1ccc([N+](=O)[O-])c(C(F)(F)F)c1 (stereo not given) | 9.31 |  | 13.1 |  | 9.95 |  | 9.6 |  |  |  |  |  |  |  |  |  | Soluble | Soluble | Dose-dependent effect | 0.407 |  |
| CC(O)(COc1ccc(OC(F)(F)F)cc1)C(=O)Nc1ccc([N+](=O)[O-])c(C(F)(F)F)c1 (stereo not given) | 7.53 |  | 10.4 |  | 17.7 |  | 19.6 |  |  |  |  |  |  |  |  |  | Soluble | Soluble | Dose-dependent effect | 0.625 |  |
| CC1(C)C(=O)N(c2cccc(C(F)(F)F)c2)C(=O)N1c1cccc(C(F)(F)F)c1 | 60.7 |  | 100 |  | 5.61 |  | 75.7 |  |  |  |  |  |  |  |  |  | Soluble | Soluble | Dose-dependent effect | 0.123 |  |
